# Source: patent US6737383B1, “Herbicidal oxadiazolidines” (priority 1999, dated 2004)
# Columns and labels:
# morningglory = test: Test B pre/postemergence morningglory; assay type: in vivo, Ipomoea hederacea
# Outline: (§1)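 Response is a visual 0-to-10 score relative to untreated plants, where 0 means no effect and 10 means complete control, taken twelve to sixteen days after application. Treatments went onto soil at planting and onto foliage of 1- to 4-leaf plants, using a surfactant-containing non-phytotoxic solvent.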
# smallflower flatsedge = test: Test B flood test smallflower flatsedge; assay type: in vivo, Cyperus difformis
# Outline: (§2)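 Flood test on plants grown to the 2-leaf stage; treated plants kept in greenhouse twelve to sixteen days, then visually rated against controls on a 0 (no effect) to 10 (complete control) scale.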
# giant foxtail = test: Test B pre/postemergence giant foxtail; assay type: in vivo, Setaria faberii
# Outline: as §1
# velvetleaf = test: Test B pre/postemergence velvetleaf; assay type: in vivo, Abutilon theophrasti; details: for Plant response rating, Velvetleaf: Postemergence
# Outline: as §1
# rape = test: Test B pre/postemergence rape; assay type: in vivo, Brassica napus
# Outline: as §1
# pigweed = test: Test B pre/postemergence pigweed; assay type: in vivo, Amaranthus retroflexus; details: for Plant response rating, Redroot pigweed: Postemergence
# Outline: as §1
# bedstraw = test: Test B pre/postemergence bedstraw; assay type: in vivo, Galium aparine
# Outline: as §1
# purple nutsedge = test: Test B pre/postemergence purple nutsedge; assay type: in vivo, Cyperus rotundus
# Outline: as §1
# crabgrass = test: Test B pre/postemergence crabgrass; assay type: in vivo, Digitaria sanguinalis
# Outline: as §1
# wild oat = test: Test B pre/postemergence wild oat; assay type: in vivo, Avena fatua; details: for Plant response rating, Wild oats: Postemergence
# Outline: as §1
# cocklebur = test: Test B pre/postemergence cocklebur; assay type: in vivo, Xanthium strumarium
# Outline: as §1
# corn = test: Test B pre/postemergence corn; assay type: in vivo, Zea mays
# Outline: as §1
# wheat = test: Test B pre/postemergence wheat; assay type: in vivo, Triticum aestivum; details: for Plant response rating, Wheat: Postemergence
# Outline: as §1
# soybean = test: Test B pre/postemergence soybean; assay type: in vivo, Glycine max; details: for Plant response rating, Soybean: Postemergence
# Outline: as §1
# duck salad = test: Test B flood test duck salad; assay type: in vivo, Heteranthera limosa
# Outline: as §2
# rice = test: Test B flood test rice; assay type: in vivo, Oryza sativa
# Outline: as §2
# [1] = Postemergence, Rate 62 g/ha, scale of 0 to 10, 0 is no effect, 10 is complete control
# [2] = Postemergence, Rate 125 g/ha, scale 0 to 10, 0 is no effect, 10 is complete control
# [3] = Postemergence, Rate 500 g/ha, scale of 0 to 10 where 0 is no effect and 10 is complete control
# [4] = Preemergence, Rate 62 g/ha, scale 0 to 10 (0 no effect, 10 complete control)
# [5] = Preemergence, Rate 125 g/ha, scale 0 to 10, 0 is no effect, 10 is complete control
# [6] = Preemergence, Rate 500 g/ha, scale of 0 to 10 where 0 is no effect and 10 is complete control
# [7] = Rate 250 g/ha, Postemergence, scale of 0 to 10 where 0 is no effect and 10 is complete control
# [8] = Rate 62 g/ha, flood test species, Pre-emergence, visual evaluation after twelve to sixteen days
# [9] = Rate 125 g/ha, under heading Pre-emergence, flood test species, visual evaluation after twelve to sixteen days
# [10] = Rate 250 g/ha, Pre-emergence (flood test species), scale 0 to 10, 0 is no effect, 10 is complete control
# [11] = Rate 500 g/ha, Pre-emergence section of Table B, 0 to 10 scale (0 no effect, 10 complete control)
# [12] = Rate 500 g/ha, scale of 0 to 10 where 0 is no effect and 10 is complete control
# [13] = Rate 250 g/ha, scale of 0 to 10 where 0 is no effect and 10 is complete control
smiles,measurement,setting,value
CC(C)N(C(=O)n1oc(=O)n(CCc2ccccc2)c1=O)c1ccccc1 [Compound 567],Morningglory plant response rating,morningglory; [1],0
same,Morningglory plant response rating,morningglory; [2],4
same,"Plant response rating, Morningglory",morningglory; [3],10
same,Morningglory plant response rating,morningglory; [4],0
same,Morningglory plant response rating,morningglory; [5],0
same,Morningglory plant response rating (0 to 10 scale),"morningglory; Preemergence, Rate 250 g/ha",0
same,Morningglory plant response rating,morningglory; [6],0
same,"Plant response rating, Morningglory",morningglory; [7],4
same,"Plant response rating, S. Flatsedge (0 to 10 scale, 0 is no effect, 10 is complete control)",smallflower flatsedge; [8],0
same,"S. Flatsedge plant response rating (0 to 10 scale, 0 is no effect, 10 is complete control)",smallflower flatsedge; [9],0
same,S. Flatsedge plant response rating,smallflower flatsedge; [10],0
same,S. Flatsedge plant response rating,smallflower flatsedge; [11],0
same,Giant foxtail plant response rating,giant foxtail; [1],0
same,Giant foxtail plant response rating,giant foxtail; [2],0
same,"Plant response rating, Giant foxtail",giant foxtail; [3],0
same,Giant foxtail plant response rating,giant foxtail; [4],3
same,Giant foxtail plant response rating,giant foxtail; [5],9
same,Giant foxtail plant response rating (0 to 10 scale),"giant foxtail; Preemergence, Rate 250 g/ha",10
same,Giant foxtail plant response rating,giant foxtail; [6],9
same,"Plant response rating, Giant foxtail",giant foxtail; [7],0
same,"Plant response rating, Velvetleaf",velvetleaf; [12],2
same,Velvetleaf plant response rating,velvetleaf; [4],0
same,Velvetleaf plant response rating,velvetleaf; [5],0
same,Velvetleaf plant response rating (0 to 10 scale),"velvetleaf; Preemergence, Rate 250 g/ha",0
same,Velvetleaf plant response rating,velvetleaf; [6],0
same,"Plant response rating, Velvetleaf",velvetleaf; [13],0
same,Rape plant response rating,rape; [1],0
same,Rape plant response rating,rape; [2],0
same,"Plant response rating, Rape",rape; [3],0
same,Rape plant response rating,rape; [4],0
same,Rape plant response rating,rape; [5],0
same,Rape plant response rating (0 to 10 scale),"rape; Preemergence, Rate 250 g/ha",0
same,Rape plant response rating,rape; [6],0
same,"Plant response rating, Rape",rape; [7],0
same,"Plant response rating, Redroot pigweed",pigweed; [12],0
same,Redroot pigweed plant response rating,pigweed; [4],0
same,Redroot pigweed plant response rating,pigweed; [5],0
same,Redroot pigweed plant response rating (0 to 10 scale),"pigweed; Preemergence, Rate 250 g/ha",8
same,Redroot pigweed plant response rating,pigweed; [6],9
same,"Plant response rating, Redroot pigweed",pigweed; [13],0
same,Bedstraw plant response rating,bedstraw; [1],0
same,Bedstraw plant response rating,bedstraw; [2],0
same,"Plant response rating, Bedstraw",bedstraw; [3],0
same,Bedstraw plant response rating,bedstraw; [4],0
same,Bedstraw plant response rating,bedstraw; [5],0
same,Bedstraw plant response rating (0 to 10 scale),"bedstraw; Preemergence, Rate 250 g/ha",0
same,Bedstraw plant response rating,bedstraw; [6],0
same,"Plant response rating, Bedstraw",bedstraw; [7],0
same,Nutsedge plant response rating,purple nutsedge; [1],4
same,"Plant response rating, Nutsedge",purple nutsedge; [3],0
same,Nutsedge plant response rating,purple nutsedge; [4],0
same,Nutsedge plant response rating,purple nutsedge; [5],0
same,Nutsedge plant response rating (0 to 10 scale),"purple nutsedge; Preemergence, Rate 250 g/ha",0
same,Nutsedge plant response rating,purple nutsedge; [6],0
same,Crabgrass plant response rating,crabgrass; [1],3
same,Crabgrass plant response rating,crabgrass; [2],7
same,"Plant response rating, Crabgrass",crabgrass; [3],8
same,Crabgrass plant response rating,crabgrass; [4],0
same,Crabgrass plant response rating,crabgrass; [5],9
same,Crabgrass plant response rating (0 to 10 scale),"crabgrass; Preemergence, Rate 250 g/ha",9
same,Crabgrass plant response rating,crabgrass; [6],9
same,"Plant response rating, Crabgrass",crabgrass; [7],7
same,"Plant response rating, Wild oats",wild oat; [12],0
same,Wild oats plant response rating,wild oat; [4],0
same,Wild oats plant response rating,wild oat; [5],0
same,Wild oats plant response rating (0 to 10 scale),"wild oat; Preemergence, Rate 250 g/ha",0
same,Wild oats plant response rating,wild oat; [6],0
same,"Plant response rating, Wild oats",wild oat; [13],0
same,Cocklebur plant response rating,cocklebur; [1],0
same,Cocklebur plant response rating,cocklebur; [2],0
same,"Plant response rating, Cocklebur",cocklebur; [3],2
same,Cocklebur plant response rating,cocklebur; [4],0
same,Cocklebur plant response rating,cocklebur; [5],0
same,Cocklebur plant response rating (0 to 10 scale),"cocklebur; Preemergence, Rate 250 g/ha",0
same,Cocklebur plant response rating,cocklebur; [6],0
same,"Plant response rating, Cocklebur",cocklebur; [7],0
same,Corn plant response rating,corn; [1],0
same,Corn plant response rating,corn; [2],0
same,"Plant response rating, Corn",corn; [3],0
same,Corn plant response rating,corn; [4],0
same,Corn plant response rating,corn; [5],0
same,Corn plant response rating (0 to 10 scale),"corn; Preemergence, Rate 250 g/ha",0
same,Corn plant response rating,corn; [6],5
same,"Plant response rating, Corn",corn; [7],0
same,"Plant response rating, Wheat",wheat; [12],0
same,Wheat plant response rating,wheat; [4],0
same,Wheat plant response rating,wheat; [5],0
same,Wheat plant response rating (0 to 10 scale),"wheat; Preemergence, Rate 250 g/ha",0
same,Wheat plant response rating,wheat; [6],0
same,"Plant response rating, Wheat",wheat; [13],0
same,"Plant response rating, Soybean",soybean; [12],6
same,Soybean plant response rating,soybean; [4],0
same,Soybean plant response rating,soybean; [5],0
same,Soybean plant response rating (0 to 10 scale),"soybean; Preemergence, Rate 250 g/ha",0
same,Soybean plant response rating,soybean; [6],0
same,"Plant response rating, Soybean",soybean; [13],4
same,"Plant response rating, Ducksalad (0 to 10 scale, 0 is no effect, 10 is complete control)",duck salad; [8],0
same,"Ducksalad plant response rating (0 to 10 scale, 0 is no effect, 10 is complete control)",duck salad; [9],0
same,Ducksalad plant response rating,duck salad; [10],0
same,Ducksalad plant response rating,duck salad; [11],0
same,"Plant response rating, Rice (0 to 10 scale, 0 is no effect, 10 is complete control)",rice; [8],0
same,"Rice plant response rating (0 to 10 scale, 0 is no effect, 10 is complete control)",rice; [9],0
same,Rice plant response rating,rice; [10],0
same,Rice plant response rating,rice; [11],0
